How the values were obtained:
Rhynchosporium secalis = assay: Antifungal activity test (PDA plate, hypha extension inhibition); type: cell-based; conditions: 100 ppm in PDA culture medium
Protocol: (§1) (Antifungal Activity Test against Various Pathogenic Fungi) For each of the compounds I-1 to 27 of the present invention and the comparative compounds (a) to (d), (m-1) and (m-3), 20 mg was weighed and dissolved in 2 ml of dimethylsulfoxide, and a double dilution row in 10 steps was prepared by further using dimethylsulfoxide. A 0.6 ml portion of these solutions was each added to 60 ml of a PDA culture medium (potato-dextrose-agar culture medium) at about 60° C., they were well mixed in a 100 ml Erlenmeyer flask, the solution was poured into a schale and was solidified, the plate culture media containing the compounds according to the present invention with final concentrations of 100, 50.0, 25.0, 12.5, 6.3, 3.2, 1.6, 0.8, 0.4 and 0.2 mg/l were prepared. On the other hand, the specimen bacteria cultured on the plate culture media beforehand was punched by a 4 mm diameter cork borer, and was inoculated on the plate culture media containing the aforementioned chemicals. After the inoculation, the bacteria were cultured at the optimum growth temperature of each bacterium for 1 to 7 days (for this optimum growth temperature, LIST OF CULTURES 1996 Microorganisms 10th edition published by Fermentation Research Institute (Foundation) can be referred to.), and the growth of the bacteria was measured by the diameter of a colony. […]

Pyrenophora graminea = assay: as above; type: cell-based; conditions: 12.5 ppm in PDA culture medium
Protocol: as §1

wheat powdery mildew = assay: Test of control effect on wheat powdery mildew; type: in vivo; design: Control Value: scale not given here; conditions: wettable powder 125 mg/l, 100 liters/10 a, wheat seedlings (Nourin 64), examined 9th to 14th day after inoculation
Protocol: (Test of Control Effect on Wheat Powdery Mildew) Wettable powders were prepared from compounds of the present invention I-1 to I-27 and comparative compounds (a) to (d), (m-1) and (m-3). The obtained wettable powder was diluted and suspended with water to provide the predetermined concentration (125 mg/l), and was sprinkled onto seedlings of wheat (variety: “Nourin 64”) at the first to the second leaf period which were cultivated using square plastic pots (size: 6.4 cm×6.4 cm) in a rate of 100 liters/10 a (ares). After drying the sprinkled leaves with air, a suspension of wheat powdery mildew spores taken from infected leaves was inoculated by spraying onto the sprinkled leaves. They were supervised in a green house (temperature: 20 to 24° C., relative humidity: 20 to 70 RH). On the 9th to 14th day after the inoculation, the infection degree was examined according to the following scale and the control value of each compound was calculated by the following calculation equation 1. [table]

Septoria tritici = assay: Antifungal activity test (PDA plate, hypha extension inhibition); type: cell-based; conditions: 100 ppm in PDA culture medium
Protocol: (Antifungal Activity Test against Various Pathogenic Fungi) For each of the compounds I-1 to 27 of the present invention and the comparative compounds (a) to (d), (m-1) and (m-3), 20 mg was weighed and dissolved in 2 ml of dimethylsulfoxide, and a double dilution row in 10 steps was prepared by further using dimethylsulfoxide. A 0.6 ml portion of these solutions was each added to 60 ml of a PDA culture medium (potato-dextrose-agar culture medium) at about 60° C., they were well mixed in a 100 ml Erlenmeyer flask, the solution was poured into a schale and was solidified, the plate culture media containing the compounds according to the present invention with final concentrations of 100, 50.0, 25.0, 12.5, 6.3, 3.2, 1.6, 0.8, 0.4 and 0.2 mg/l were prepared. On the other hand, the specimen bacteria cultured on the plate culture media beforehand was punched by a 4 mm diameter cork borer, and was inoculated on the plate culture media containing the aforementioned chemicals. After the inoculation, the bacteria were cultured at the optimum growth temperature of each bacterium for 1 to 7 days (for this optimum growth temperature, LIST OF CULTURES 1996 Microorganisms 10th edition published by Fermentation Research Institute (Foundation) can be referred to.), and the growth of the bacteria was measured by the diameter of a colony. […] R=100(dc−dt)/dc (Equation 3) [wherein each symbol is shown as follows: R=Hypha extension inhibition rate (%), dc=Diameter of colony on no-treated plate, dt=Diameter of colony on chemical-treated plate.] The results obtained above was evaluated in 5 steps in accordance with the following examination scale. <Growth Inhibition> 5: Hypha extension inhibition rate of 90% or more 4: Hypha extension inhibition rate of from 70% to less than 90% 3: […] 2: […] In addition, the abbreviations in Table 10 are as follows: S.t: Septoria tritici

Row | SMILES | Growth Inhibition R.s (100) (Rhynchosporium secalis) | Growth Inhibition P.g (12.5) (Pyrenophora graminea) | Control Value (wheat powdery mildew) | Growth Inhibition S.t (100) (Septoria tritici)
1 | CC(Cc1ccc(C(F)(F)F)c(F)c1F)CN(C)Cc1ccc(Cl)nc1 (centres unmarked) [Compound I-10] | 4 (Hypha extension inhibition rate of from 70% to less than 90%) | 4 (Hypha extension inhibition rate of from 70% to less than 90%) | 100 | 4 (Hypha extension inhibition rate of from 70% to less than 90%)
2 | CC(Cc1ccc2c(c1)OC(F)(F)O2)CN(C)Cc1ccc(Cl)nc1 (centres unmarked) [Compound I-24] | 5 (Hypha extension inhibition rate of 90% or more) | 5 (Hypha extension inhibition rate of 90% or more) | 100 | 4 (Hypha extension inhibition rate of from 70% to less than 90%)
